# Columns and labels:
# 293 cells = assay: Cell status of 293 cells treated with sample alone (herpes virus screening)
# [1] = system: Bel-7402 human hepatic carcinoma; assay: In vitro inhibition rate to tumor cells (MTT), Bel-7402; assay type: cell-based; settings: 50 μg/ml
# [2] = system: LLC mouse Lewis lung carcinoma; assay: In vitro inhibition rate to tumor cells (MTT), LLC; assay type: cell-based; settings: 50 μg/ml
# [3] = system: SMMC-7721 human hepatic carcinoma; assay: In vitro inhibition rate to tumor cells (MTT), SMMC-7721; assay type: cell-based; settings: 50 μg/ml
# [4] = system: HL-60 human promyelocytic leukemia; assay: In vitro anti-tumor IC50 (MTT), HL-60; assay type: cell-based; settings: Homo sapiens, HL-60; Table 4; read-out: IC50 (ug/ml) against tumor cell lines, HL-60
# [5] = system: A-549 human lung adenocarcinoma; assay: In vitro inhibition rate to tumor cells (MTT), A-549; assay type: cell-based; settings: 50 μg/ml
# [6] = system: HL-60 human promyelocytic leukemia; assay: In vitro inhibition rate to tumor cells (MTT), HL-60; assay type: cell-based; settings: 50 μg/ml
# [7] = system: U-937 human histocytic lymphoma; assay: In vitro anti-tumor IC50 (MTT), U-937; assay type: cell-based; settings: Homo sapiens, U-937; Table 4; read-out: IC50 (ug/ml) against tumor cell lines, U-937
# [8] = system: U-937 human histocytic lymphoma; assay: In vitro inhibition rate to tumor cells (MTT), U-937; assay type: cell-based; settings: 50 μg/ml
# [9] = system: MCF-7 human mammary adenocarcinoma; assay: In vitro inhibition rate to tumor cells (MTT), MCF-7; assay type: cell-based; settings: 50 μg/ml
# [10] = target: T1, HIV-1 proteinase (HIV-1 PR) (Human immunodeficiency virus type 1 group M subtype B, UniProt P04585); assay: Screening for in vitro activity against HIV-1 proteinase; assay type: biochemical
# T1 construct: HIV-1 proteinase digests the fluorescent-labeled substrate; purchased
# Outline: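 Inhibition was scored from product fluorescence after the enzyme was added to buffer holding the labeled substrate and the test sample. Samples were five serial 5× dilutions in water from a DMSO solution. Indinavir served as the reference control; the enzyme was recombinant HIV-1 PR.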
# [11] = system: Hela human cervical carcinoma; assay: In vitro anti-tumor IC50 (MTT), Hela; assay type: cell-based; settings: Homo sapiens, HeLa; Table 4; read-out: IC50 (ug/ml) against tumor cell lines, Hela
# [12] = system: Hela human cervical carcinoma; assay: In vitro inhibition rate to tumor cells (MTT), Hela; assay type: cell-based; settings: 50 μg/ml
# [13] = target: T2, HIV-1 reverse transcriptase (Human immunodeficiency virus type 1 group M subtype B, UniProt P04585); assay: Screening for the in vitro activity against the HIV-1 reverse transcriptase; assay type: biochemical; settings: IC50, initial concentration 200 μg/ml
# T2 construct: purchased
# Outline: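 Each sample, taken from DMSO through five 5-fold water dilutions, was incubated with recombinant RT and Biotin-dUTP substrate. Enzyme activity was quantified as biotin label incorporated into the plate-bound template, using streptavidin-HRP with absorbance at 450 nm.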
compound,measurement,setting,value
"C=C1CC2(OS(=O)(=O)[O-])OC3(CC2C(C)C)C(C)CCC13.[Na+] (stereo not shown) [Compound 21, Curcumol sodium sulfonate]",cell status of 12 and 24 h,293 cells; 12.5 μg/ml,Good
same,cell status of 12 and 24 h,293 cells; 25 μg/ml,Good
same,cell status of 12 and 24 h,293 cells; 50 μg/ml,Good
same,cell status of 12 and 24 h,293 cells; 100 μg/ml,Good
same,cell status of 12 and 24 h,293 cells; 200 μg/ml,Normal
same,"Cytopathy and cell status, Sample","293 cells; 200 μg/ml, 24 hrs",Normal
same,"inhibition rate, Results (%) Bel-7402",[1]; Table 1,5.36%
same,"inhibition rate, Results (%) Bel-7402",[1]; Table 2 (repeated screening),2.13%
same,"inhibition rate, Results (%) Bel-7402",[1]; Table 3 (repeated screening),3.12%
same,"inhibition rate, Results (%) LLC",[2]; Table 1,10.47%
same,"inhibition rate, Results (%) LLC",[2]; Table 2 (repeated screening),1.89%
same,"inhibition rate, Results (%) LLC",[2]; Table 3 (repeated screening),7.58%
same,"inhibition rate, Results (%) SMMC-7721",[3]; Table 1,−7.26%
same,"inhibition rate, Results (%) SMMC-7721",[3]; Table 2 (repeated screening),−1.82%
same,"inhibition rate, Results (%) SMMC-7721",[3]; Table 3 (repeated screening),−2.93%
same,IC50,[4],1.3 µg/mL
same,"inhibition rate, Results (%) A-549",[5]; Table 1,26.42%
same,"inhibition rate, Results (%) A-549",[5]; Table 2 (repeated screening),20.01%
same,"inhibition rate, Results (%) A-549",[5]; Table 3 (repeated screening),1.23%
same,"inhibition rate, Results (%) HL-60",[6]; Table 1,93.12%
same,"inhibition rate, Results (%) HL-60",[6]; Table 2 (repeated screening),90.89%
same,"inhibition rate, Results (%) HL-60",[6]; Table 3 (repeated screening),89.79%
same,IC50,[7],0.89 µg/mL
same,"inhibition rate, Results (%) U-937",[8]; Table 1,92.04%
same,"inhibition rate, Results (%) U-937",[8]; Table 2 (repeated screening),89.46%
same,"inhibition rate, Results (%) U-937",[8]; Table 3 (repeated screening),91.45%
same,"inhibition rate, Results (%) MCF-7",[9]; Table 1,87.56%
same,"inhibition rate, Results (%) MCF-7",[9]; Table 2 (repeated screening),85.23%
same,"inhibition rate, Results (%) MCF-7",[9]; Table 3 (repeated screening),87.58%
same,Inhibition rate,[10]; 0.08 μg/ml,8.74
same,Inhibition rate,[10]; 0.40 μg/ml,14.77
same,Inhibition rate,[10]; 2.0 μg/ml,5.86
same,Inhibition rate,[10]; 10 μg/ml,10.16
same,Inhibition rate,[10]; 50 μg/ml,5.47
same,IC50,"[10]; IC50, five 5× serial dilutions from 50 μg/ml",> 148 µM
same,IC50,[11],0.75 µg/mL
same,"inhibition rate, Results (%) Hela",[12]; Table 1,91.69%
same,"inhibition rate, Results (%) Hela",[12]; Table 2 (repeated screening),90.11%
same,"inhibition rate, Results (%) Hela",[12]; Table 3 (repeated screening),91.67%
same,IC50,[13],> 591 µM

# Reference: patent publication US7700584B2 (Hangzhou Minsheng Pharmaceuticals Co., Ltd., priority 2004, dated 2010)
